Among the data in patent US20240424111A1, “Degrader Compounds and Uses Thereof” (CALICO LIFE SCIENCES LLC, priority 2021, published 2024) are DC50 values, retold here.

Structures are written as SMILES. Bounds are passed on as bounds.

The target of assay [1] is T1, PTPN2 (Homo sapiens, UniProt P17706).
T1 construct: expressed in transfected cells; host or cells: 293T.109 (HiBiT-PTPN2), derived from 293T WT (ATCC)
T1 sequence (P17706 1-415): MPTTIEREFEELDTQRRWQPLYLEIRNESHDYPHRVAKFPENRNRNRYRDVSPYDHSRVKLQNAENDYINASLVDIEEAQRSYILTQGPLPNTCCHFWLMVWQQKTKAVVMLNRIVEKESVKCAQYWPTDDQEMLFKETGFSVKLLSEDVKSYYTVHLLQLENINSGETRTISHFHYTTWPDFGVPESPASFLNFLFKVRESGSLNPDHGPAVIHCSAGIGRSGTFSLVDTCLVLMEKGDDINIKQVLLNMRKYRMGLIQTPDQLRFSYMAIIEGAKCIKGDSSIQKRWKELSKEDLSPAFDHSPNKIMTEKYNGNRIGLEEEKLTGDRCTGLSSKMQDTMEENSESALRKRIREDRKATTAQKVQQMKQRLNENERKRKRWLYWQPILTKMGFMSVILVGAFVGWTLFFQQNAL
Briefly: HiBiT PTPN2 degradation in 293T.109 (HiBiT-PTPN2) cells, 24 hours. The format is cell-based. Particulars: 293T.109 cells. A digest of the protocol: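 293T cells stably expressing N-terminal HiBiT-tagged PTPN2 were treated for 24 h at 37 °C with compound in an 11-point half-log series from 10 μM top concentration, in duplicate. Remaining HiBiT-PTPN2 was measured by lytic luminescence, with untreated cells as the negative control and wells without lytic reagent as the positive control.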

Assay [2] deals with T2, PTPN2 (Mus musculus, UniProt Q06180).
T2 construct: HiBiT; host or cells: B16F10.4
T2 sequence (Q06180 1-406): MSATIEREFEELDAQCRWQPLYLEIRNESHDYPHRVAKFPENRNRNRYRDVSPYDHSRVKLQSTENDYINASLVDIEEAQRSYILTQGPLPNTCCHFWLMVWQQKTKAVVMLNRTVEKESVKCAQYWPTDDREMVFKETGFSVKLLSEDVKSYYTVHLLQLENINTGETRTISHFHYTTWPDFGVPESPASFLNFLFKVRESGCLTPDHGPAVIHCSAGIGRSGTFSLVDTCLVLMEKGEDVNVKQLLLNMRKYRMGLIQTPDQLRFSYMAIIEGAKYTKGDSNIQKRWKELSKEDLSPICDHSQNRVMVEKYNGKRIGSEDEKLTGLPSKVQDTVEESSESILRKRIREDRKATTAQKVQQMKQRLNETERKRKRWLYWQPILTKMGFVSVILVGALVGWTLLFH
In words: HiBiT PTPN2 degradation in B16F10.4 cells, 24 hours. Type of assay: cell-based. A digest of the protocol:
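PTPN2 degradation was measured via luminescence from the Nano-Glo® HiBiT Lytic Assay kit. Compounds were dispensed into 384-well plates at an 11-point half-log titration in duplicate, starting at 10 μM. Cells were added at 5000 per well and held at 37° C. with 5% CO2 for 24 hours. Untreated cells were the negative control and cells without lytic reagent the positive control. Lytic reagents were then added and luminescence read on an EnVision™ Multilabel Reader.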
On the technique in general: HiBiT is a short tag that completes a luciferase, so light tracks the accessible tagged protein.

In general, DC50 refers to the concentration giving 50% degradation. In the case of `Cn1nc(C2CCC(=O)NC2=O)c2ccc(Oc3ccc(CC(=O)Nc4ccc5c(F)c(N6CC(=O)NS6(=O)=O)c(O)cc5c4)cc3)cc21` (centres unmarked) [Degrader 39], the DC50 on PTPN2 [1] was 50 to 150 nM; at PTPN2 [2], 150 to 500 nM.
Consider `Cn1c(=O)n(C2CCC(=O)NC2=O)c2cc(F)c(N3CCN(CC(=O)Nc4ccc5c(F)c(N6CC(=O)NS6(=O)=O)c(O)cc5c4)CC3)cc21` (centres unmarked) [Degrader 55], for which the DC50 was 50 to 150 nM at PTPN2 [1] and 150 to 500 nM on PTPN2 [2].
For `Cn1c(=O)n(C2CCC(=O)NC2=O)c2ccc(-c3ccc(CC(=O)Nc4ccc5c(F)c(N6CC(=O)NS6(=O)=O)c(O)cc5c4)cc3)nc21` (centres unmarked) [Degrader 60], the DC50 at PTPN2 [1] was 150 to 500 nM; on PTPN2 [2] it was 50 to 150 nM.
With `Cn1c(=O)n(C2CCC(=O)NC2=O)c2ccc(N3CCC(CNC(=O)Nc4ccc5c(F)c(N6CC(=O)NS6(=O)=O)c(O)cc5c4)CC3)cc21` (centres unmarked) [Degrader 89], the DC50 on PTPN2 [1] and at PTPN2 [2] was 50 to 150 nM throughout.
For the molecule `Cn1c(=O)n(C2CCC(=O)NC2=O)c2ccc(C3CCN(C/C=C/c4ccc5c(F)c(N6CC(=O)NS6(=O)=O)c(O)cc5c4)CC3)cc21` (centres unmarked) [Degrader 78], the results for the half-maximal degradation concentration (DC50) on PTPN2 [1] and on PTPN2 [2] were 150 to 500 nM and ≥ 500 nM, respectively.
For the molecule `Cn1c(=O)n(C2CCC(=O)NC2=O)c2ccc(C3CCN(CC(=O)N4CCC(Oc5ccc6cc(O)c(N7CC(=O)NS7(=O)=O)c(F)c6c5)CC4)CC3(F)F)cc21` (centres unmarked) [Degrader 10], the DC50 at PTPN2 [1] lay within 50 to 150 nM; at PTPN2 [2], 150 to 500 nM.
Take `Cn1c(=O)n(C2CCC(=O)NC2=O)c2ccc(C3CCN(CC(=O)Nc4ccc5c(F)c(N6CC(=O)NS6(=O)=O)c(O)cc5c4)CC3=O)cc21` (centres unmarked) [Degrader 113]: the DC50 at PTPN2 [1] is 50 to 150 nM; on PTPN2 [2], 150 to 500 nM.
